The numbers were not newly measured in patent US20050063990A1, “Compositons and methods for weight loss” (priority 2003, published 2005), which cites them from elsewhere.

For data set [1] the following is noted: animal studies (mice fed CLA).

Take conjugated linoleic acid [CLA]: the abdominal fat entry (men classified as abdominally obese) is given as “decrease abdominal fat”. Where the note is “overweight and obese humans”, the total fat mass result is on record as “reduces total fat mass”. Also, the “increase in use of fat as fuel (energy expenditure)” value in data set [1] is on record as 74%.
